The values below come from paper PMC4282169 (Nature, 2014).

Usually Km stands for the concentration of substrate that gives half-maximal velocity.

The assay concerns the target T1, BoGH5A (Bacteroides ovatus, UniProt A7LXT7).
T1 sequence (A7LXT7 34-502 limits assumed): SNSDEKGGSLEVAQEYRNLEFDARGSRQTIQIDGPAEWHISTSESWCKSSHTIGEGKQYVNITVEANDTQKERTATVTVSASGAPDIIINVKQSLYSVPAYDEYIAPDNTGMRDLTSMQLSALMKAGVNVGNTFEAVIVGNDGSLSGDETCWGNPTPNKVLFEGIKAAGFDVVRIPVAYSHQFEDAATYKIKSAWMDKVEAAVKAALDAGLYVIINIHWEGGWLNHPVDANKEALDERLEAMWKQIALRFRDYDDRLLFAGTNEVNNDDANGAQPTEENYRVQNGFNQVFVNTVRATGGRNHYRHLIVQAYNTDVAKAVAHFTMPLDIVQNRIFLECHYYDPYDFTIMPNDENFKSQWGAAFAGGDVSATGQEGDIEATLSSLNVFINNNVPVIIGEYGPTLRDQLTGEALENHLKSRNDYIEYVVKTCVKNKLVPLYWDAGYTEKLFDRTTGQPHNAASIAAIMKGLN
Briefly: 2-chloro-4-nitrophenolate release, A405, continuous. It counts as biochemical. To be noted: read-out: Km (mM) ^‡; 37 °C, 50 mM buffer at or near pH optimum (6.0-7.0).

Structures are written as SMILES.

As to `O=[N+]([O-])c1ccc(O[C@@H]2O[C@H](CO)[C@@H](O[C@@H]3O[C@H](CO[C@H]4OC[C@@H](O)[C@H](O)[C@H]4O[C@@H]4O[C@H](CO)[C@H](O)[C@H](O)[C@H]4O)[C@@H](O[C@@H]4O[C@H](CO[C@H]5OC[C@@H](O)[C@H](O)[C@H]5O[C@@H]5O[C@H](CO)[C@H](O)[C@H](O)[C@H]5O)[C@@H](O[C@@H]5O[C@H](CO[C@H]6OC[C@@H](O)[C@H](O)[C@H]6O)[C@@H](O)[C@H](O)[C@H]5O)[C@H](O)[C@H]4O)[C@H](O)[C@H]3O)[C@H](O)[C@H]2O)c(Cl)c1` [XLLG-β-CNP], the Km was found to be 0.145 ± 0.024 mM.
